According to paper PMC6804140, “Peptidomic Approach for the Identification of Peptides with Potential Antioxidant and Anti-Hyperthensive Effects Derived From Asparagus By-Products” (Molecules, 2019):
Ends that are not written are not given here.

Target: T1, ACE from rabbit lung (Oryctolagus cuniculus, UniProt P12822)
T1 construct: ACE from rabbit lung; purchased Sigma-Aldrich (St. Louis, MO, USA); host or cells: rabbit lung tissue
T1 sequence (P12822 34-1310): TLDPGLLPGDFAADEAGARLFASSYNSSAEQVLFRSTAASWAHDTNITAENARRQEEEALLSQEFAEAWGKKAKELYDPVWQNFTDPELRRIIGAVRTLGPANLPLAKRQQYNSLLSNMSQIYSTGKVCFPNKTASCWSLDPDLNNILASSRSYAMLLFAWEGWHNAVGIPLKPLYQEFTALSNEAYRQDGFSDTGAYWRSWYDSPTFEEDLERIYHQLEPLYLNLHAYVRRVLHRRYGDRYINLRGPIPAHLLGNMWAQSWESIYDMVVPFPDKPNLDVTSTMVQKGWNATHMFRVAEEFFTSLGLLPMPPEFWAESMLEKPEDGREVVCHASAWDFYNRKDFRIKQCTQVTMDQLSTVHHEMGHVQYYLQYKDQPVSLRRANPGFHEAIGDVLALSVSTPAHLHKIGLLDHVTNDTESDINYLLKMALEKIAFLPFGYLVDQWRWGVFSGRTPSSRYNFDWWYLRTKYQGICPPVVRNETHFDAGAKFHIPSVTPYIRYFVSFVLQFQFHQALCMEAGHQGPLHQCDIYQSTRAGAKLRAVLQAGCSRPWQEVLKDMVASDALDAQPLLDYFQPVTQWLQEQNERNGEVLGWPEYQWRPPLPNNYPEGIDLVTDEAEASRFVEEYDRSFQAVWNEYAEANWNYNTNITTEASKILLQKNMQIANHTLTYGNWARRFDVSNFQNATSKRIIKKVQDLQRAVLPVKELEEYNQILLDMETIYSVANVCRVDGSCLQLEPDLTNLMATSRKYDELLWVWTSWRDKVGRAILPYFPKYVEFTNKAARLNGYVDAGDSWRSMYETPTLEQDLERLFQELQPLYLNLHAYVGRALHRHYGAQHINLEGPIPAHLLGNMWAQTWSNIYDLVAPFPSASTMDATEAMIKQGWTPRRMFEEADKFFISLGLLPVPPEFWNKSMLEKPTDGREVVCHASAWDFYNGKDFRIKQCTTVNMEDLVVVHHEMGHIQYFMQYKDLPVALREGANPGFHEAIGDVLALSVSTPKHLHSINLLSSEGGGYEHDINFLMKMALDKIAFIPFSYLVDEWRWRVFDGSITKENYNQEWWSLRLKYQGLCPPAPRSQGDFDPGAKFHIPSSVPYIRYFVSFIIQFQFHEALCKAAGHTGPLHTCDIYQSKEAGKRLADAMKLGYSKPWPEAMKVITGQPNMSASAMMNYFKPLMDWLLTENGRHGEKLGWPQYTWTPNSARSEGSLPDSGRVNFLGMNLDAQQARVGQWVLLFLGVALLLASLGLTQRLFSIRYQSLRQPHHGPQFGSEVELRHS
Assay: ACE-inhibitory assay
Type: biochemical
Settings: synthetic peptide (90%); pH 8.3, 37 °C, 90 min, 228 nm; fit Origin 9.0; ± SD in Table 1; read-out: EC50 value, ACE inhibition assay

Row | Substance | EC50 [µM]
1 | PDWFLLL [PDWFLLL] | 5.74 ± 2.35
2 | ASQSIWLPGWL [ASQSIWLPGWL] | 4.02 ± 1.79
